Assay results as given in patent US10106542B2, “Substituted 6,7-dihydropyrazolo[1,5-a]pyrazines as negative allosteric modulators of mGluR2 receptors” (Janssen Pharmaceutica NV, priority 2013, dated 2018).
Read-outs that look alike come from different tables or passages of the source.

Tests used:
Wiga rats = test: Reserpine interaction test in rats; assay type: in vivo, rat; conditions: Rattus norvegicus, Wiga rats
Protocol: 4) Reserpine Interaction Test in Rats
It was investigated to what extent the mydriatic action of test compounds was sufficient to counteract the miosis induced by the monoamines-depleting agent reserpine (10 mg/kg; SC) in Wiga rats.
The effects are illustrated in FIG. 3. […] The reference mGlu2 NAMs RO-4995819 (40 mg/kg, p.o.), RO-4491533 (40 mg/kg, p.o.; 10 mg/kg, s.c.) and [CAS 579473-69-1]

[1] = Ro-4-1284 interaction test in rats; assay type: in vivo, rat; conditions: rat, in vivo, po; read-out: ED50 effect on body temperature immediately before the injection of Ro-4-1284
Protocol: (§1) 5) Ro-4-1284 Interaction Test in Rats The relative ability of Co. No. 1 to increase palpebral opening was also studied in rats challenged with another monoamines depleting agent, viz. Ro-4-1284 (1.25 mg/kg, s.c.). Effects on body temperature immediately before the injection of Ro-4-1284 were also measured. The cumulative palpebral opening score (every 5 min over a 1-h period) was used for evaluation. The median cumulative palpebral opening in solvent-pretreated control animals (n=70) was 18; a scores >25 occurred in only 1.4% of these control animals and was adopted as all-or-none criterion for drug-induced reversal of the Ro-4-1284-induced palpebral ptose. Co.

rats = test: Ro-4-1284 interaction test in rats; assay type: in vivo, rat; conditions: Rattus norvegicus; p.o.; Ro-4-1284 1.25 mg/kg s.c.; cumulative score over 1 h; read-out: ED50 increase of palpebral opening to scores >25 (reversal of Ro-4-1284-induced palpebral ptose)
Protocol: as §1

Male Wiga Wistar rats = test: Reversal of LY-404039-induced decrease of palpebral opening in apomorphine-challenged rats; assay type: in vivo; conditions: Rattus norvegicus, reversal of LY-404039-induced decrease of palpebral opening (cumulative score >26) in apomorphine challenged rats
Protocol: 6) Reversal of LY-404039-Induced Decrease of Palpebral Opening in Apomorphine-Challenged Rats.
Male Wiga Wistar rats (Crl:WI; Charles River Germany; 220±40 g) were housed under standard laboratory conditions (21±2° C.; 50-65% relative humidity; light-dark cycle set at 12 h; lights on at 6.00 h) and fasted overnight prior to the start of the experiments (tap water remained available ad libitum). During the test period, they were housed in individual cages. The local Ethical Committee approved all studies in compliance with the Declaration of Helsinki. Palpebral opening was scored every 5 min over the first hour after injection of apomorphine (1.0 mg/kg, i.v.) in animals either pretreated or not pretreated with LY-404039 (2.5 mg/kg, s.c.) at 1 h prior to the apomorphine injection. The animals were also pretreated with test compound or solvent at a predefined interval before apomorphine challenge. The score system was: (5) exophthalmos, (4) wide open, (3) open for three-quarters, (2) half open, (1) open for one-quarter, (0) closed. The scores for palpebral opening were cumulated over the 60-min observation period. A cumulative palpebral opening score >26 was selected for drug-induced reversal of the LY-404039-induced decrease of palpebral opening (occurrence in 3.2% of control animals pretreated with LY-404039 (n=154) versus in 99.5% of control rats not pretreated with LY-404039 (n=6335)).
In animals receiving apomorphine alone the median palpebral opening is 43 whereas in animals receiving apomorphine and LY-404039, the median palpebral opening is 17.

[2] = test system: rat hippocampal brain slices; test: Long-term potentiation in the dentate gyrus of hippocampal brain slices; assay type: cell-based; conditions: 10 μM
Protocol: Recordings of fEPSPs were made from hippocampal brain slices using a multi-electrode array (MEA) biochip, and 3-dimensional-(3D) tip electrodes, according to a standard protocol. These recordings were used to monitor glutamate-mediated synaptic transmission (FIG. 4).
Subsequently, the effects of Co. No. 1 on synaptic function using long-term potentiation (LTP) protocols in the dentate gyms (Goeldner et. al., Neuropharmacology 2013, 64, 337-346) were evaluated.
Small magnitude LTP (110%) was induced using isolated glutamatergic-mediated fEPSP: trains of theta-burst stimulation that are known to induce LTP at these particular synapses were applied (Dinklo et al., J. Pharmacol. Exp. Ther. 2011, 336(2), 560-574). In the presence of 10 μM Co. No. 1, the magnitude of LTP was enhanced by 150% compared to baseline (p=0.005). […] At the end of the experiments, addition of 1 mM kynurenic acid to block glutamatergic neurotransmission, confirmed that the post-synaptic response is mediated by glutamate neurotransmission.

Cc1cc(-c2cnn3c2C(=O)N(c2ccc(C(F)(F)F)cc2)C[C@@H]3C)ccn1 [compound 1, (7S)-7-Methyl-3-(2-methylpyridin-4-yl)-5-[4-(trifluoromethyl)phenyl]-6,7-dihydropyrazolo[1,5-a]pyrazin-4(5H)-one]
ED50 (Wiga rats; p.o., -1 h, reserpine 10 mg/kg SC, read-out: ED50 reversal of reserpine-induced miosis): 9.4 mg/kg
ED50 (Wiga rats; p.o., -1 h, reserpine 10 mg/kg SC, read-out: ED50 reversal of reserpine-induced ptosis): 0.78 mg/kg
ED50 (Wiga rats; p.o., -1 h, reserpine 10 mg/kg SC, read-out: ED50 reversal of reserpine-induced sedation): 7.1 mg/kg
ED50 (Wiga rats; p.o., -4 h, reserpine 10 mg/kg SC, read-out: ED50 reversal of reserpine-induced miosis): 9.4 mg/kg
ED50 (Wiga rats; p.o., -4 h, reserpine 10 mg/kg SC, read-out: ED50 reversal of reserpine-induced ptosis): 0.78 mg/kg
ED50 (Wiga rats; p.o., -4 h, reserpine 10 mg/kg SC, read-out: ED50 reversal of reserpine-induced sedation): 14 mg/kg
ED50 (Wiga rats; po, -1 h, read-out: ED50 mydriasis before the reserpine challenge): 1.55 mg/kg
ED50 (Wiga rats; po, -4 h, read-out: ED50 mydriasis before the reserpine challenge): 0.89 mg/kg
ED50 (Wiga rats; po, Time 60, reserpine 10 mg/kg SC, read-out: ED50, reversal of reserpine-induced ptosis): 0.67 mg/kg
ED50 (Wiga rats; po, Time 240, reserpine 10 mg/kg SC, read-out: ED50, reversal of reserpine-induced ptosis): 0.89 mg/kg
ED50 (Wiga rats; sc, Time 60, reserpine 10 mg/kg SC, read-out: ED50, reversal of reserpine-induced ptosis): 1.01 mg/kg
ED50 (Wiga rats; sc, read-out: ED50 mydriasis before the reserpine challenge): 1.78 mg/kg
ED50 (Wiga rats; sc, reserpine 10 mg/kg SC, read-out: ED50 reversal of reserpine-induced miosis): 4.1 mg/kg
ED50 (Wiga rats; sc, reserpine 10 mg/kg SC, read-out: ED50 reversal of reserpine-induced ptosis): 1.03 mg/kg
ED50 (Wiga rats; sc, reserpine 10 mg/kg SC, read-out: ED50 reversal of reserpine-induced sedation): 9.4 mg/kg
ED50 [1]: > 10 mg/kg
ED50 (rats): 0.51 mg/kg
ED50 (Male Wiga Wistar rats; Route PO): 0.45 mg/kg
ED50 (Male Wiga Wistar rats; Route SC): 0.3 mg/kg
post-theta potentiation (PTP) ([2]; vehicle 120%, p=0.01, 22 slices from 4 SD rats): 160%
magnitude of LTP compared to baseline ([2]; weak theta-burst stimulation, p=0.005, control LTP 110%): 150%
